Source: ChEMBL document CHEMBL5321285 (J Med Chem, 2023)
Values after ≈ are worked out from the molar mass of the structure shown. Active and inactive are the calls of the source. No cut-off for these calls is given here.

Legend:
[1] = target: Sigma non-opioid intracellular receptor 1 (Homo sapiens, UniProt Q99720); assay: Displacement of [3H]-(+)-pentazocine from human sigma1 receptor transfected in HEK293 cell membranes assessed as inhibition constant incubated for 120 mins in presence of haloperidol by microbeta scintillation counter analysis; design: species or system Cell membrane
Chain of Sigma non-opioid intracellular receptor 1 (Q99720 whole entry): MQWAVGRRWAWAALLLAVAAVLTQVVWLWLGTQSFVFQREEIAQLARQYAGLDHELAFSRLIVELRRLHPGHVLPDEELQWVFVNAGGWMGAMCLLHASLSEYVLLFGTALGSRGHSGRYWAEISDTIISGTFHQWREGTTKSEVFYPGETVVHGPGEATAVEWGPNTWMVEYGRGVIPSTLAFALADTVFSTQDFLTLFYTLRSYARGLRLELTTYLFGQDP

Homo sapiens = species: Homo sapiens; assay: Selectivity ratio of Ki for displacement of [3H]-(+)-pentazocine from human sigma1 receptor transfected in HEK293 cell membranes assessed as inhibition constant to Ki for displacement of [3H]-1,3-di-O-tolylguanidine from human sigma 2 receptor/TMEM97 transfected in sigma 1 receptor knockout HEK293 cell membranes assessed as inhibition constant
[2] = target: Sigma intracellular receptor 2 (Homo sapiens, UniProt Q5BJF2); assay: Displacement of [3H]-1,3-di-O-tolylguanidine from human sigma 2 receptor/TMEM97 transfected in sigma 1 receptor knockout HEK293 cell membranes assessed as inhibition constant measured after 120 mins by microbeta scintillation counting analysis; design: species or system Cell membrane
Chain of Sigma intracellular receptor 2 (Q5BJF2 whole entry): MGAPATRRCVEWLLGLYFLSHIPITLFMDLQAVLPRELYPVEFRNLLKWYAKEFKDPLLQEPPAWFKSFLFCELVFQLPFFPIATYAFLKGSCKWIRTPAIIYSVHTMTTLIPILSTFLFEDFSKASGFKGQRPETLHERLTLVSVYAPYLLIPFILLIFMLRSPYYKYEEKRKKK

[3] = Metabolic stability in human liver microsome assessed as parent compound remaining at 1 uM measured after 1 hr in presence of NADPH regenerating system by UPLC-MS/MS analysis; assay type: ADME; conditions: liver microsomes, read-out: Stability
[4] = Metabolic stability in rat liver microsome assessed as parent compound remaining at 1 uM measured after 1 hr in presence of NADPH regenerating system by UPLC-MS/MS analysis; assay type: ADME; conditions: liver microsomes, read-out: Stability
[5] = Metabolic stability in mouse liver microsome assessed as parent compound remaining at 1 uM measured after 1 hr in presence of NADPH regenerating system by UPLC-MS/MS analysis; assay type: ADME; conditions: liver microsomes, read-out: Stability
[6] = target: Voltage-gated inwardly rectifying potassium channel KCNH2 (Homo sapiens, UniProt Q12809); assay: Inhibition of hERG expressed in CHO cells at holding potential of -80 mV measured for 15 seconds by whole cell patch clamp assay; assay type: toxicity, cell-based
Chain of Voltage-gated inwardly rectifying potassium channel KCNH2 (Q12809 whole entry): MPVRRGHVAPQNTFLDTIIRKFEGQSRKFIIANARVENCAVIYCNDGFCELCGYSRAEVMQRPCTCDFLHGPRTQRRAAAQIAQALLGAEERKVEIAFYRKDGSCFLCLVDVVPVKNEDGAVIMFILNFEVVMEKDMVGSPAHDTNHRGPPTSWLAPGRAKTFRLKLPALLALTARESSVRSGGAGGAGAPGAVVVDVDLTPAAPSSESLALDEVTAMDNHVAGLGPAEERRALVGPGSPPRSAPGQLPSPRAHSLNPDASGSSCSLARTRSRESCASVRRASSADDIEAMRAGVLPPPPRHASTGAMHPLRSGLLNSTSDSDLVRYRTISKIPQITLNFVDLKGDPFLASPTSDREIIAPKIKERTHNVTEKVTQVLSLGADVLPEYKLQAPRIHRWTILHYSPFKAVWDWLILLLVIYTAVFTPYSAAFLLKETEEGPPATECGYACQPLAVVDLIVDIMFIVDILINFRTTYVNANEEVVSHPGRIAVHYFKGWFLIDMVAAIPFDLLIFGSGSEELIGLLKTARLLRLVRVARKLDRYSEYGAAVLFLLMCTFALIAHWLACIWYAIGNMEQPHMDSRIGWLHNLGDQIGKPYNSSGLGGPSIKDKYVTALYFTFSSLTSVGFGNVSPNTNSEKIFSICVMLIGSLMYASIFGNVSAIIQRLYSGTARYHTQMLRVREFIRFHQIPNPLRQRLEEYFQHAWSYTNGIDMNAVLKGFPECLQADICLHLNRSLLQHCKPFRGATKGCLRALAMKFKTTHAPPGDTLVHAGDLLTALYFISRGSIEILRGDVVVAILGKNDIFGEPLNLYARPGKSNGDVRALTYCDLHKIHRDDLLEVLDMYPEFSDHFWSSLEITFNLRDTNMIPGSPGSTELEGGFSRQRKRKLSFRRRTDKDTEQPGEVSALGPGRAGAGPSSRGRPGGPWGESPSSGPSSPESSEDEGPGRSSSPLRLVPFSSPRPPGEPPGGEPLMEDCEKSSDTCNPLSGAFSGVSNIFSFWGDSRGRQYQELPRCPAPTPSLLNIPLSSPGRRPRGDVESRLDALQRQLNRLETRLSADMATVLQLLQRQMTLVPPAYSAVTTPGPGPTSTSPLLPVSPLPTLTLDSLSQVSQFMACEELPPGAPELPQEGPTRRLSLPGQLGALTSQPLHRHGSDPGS

[7] = Lipophilicity, logP of compound; assay type: physicochemical; conditions: octanol/water
[8] = Lipophilicity, logD of the compound; assay type: physicochemical; conditions: octanol/water
[9] = Solubility of the compound at pH 7.4; assay type: physicochemical; conditions: buffer
[10] = Dissociation constant, pKa of the compound; assay type: physicochemical
Cytochrome P450 1A2 = target: T1, Cytochrome P450 1A2 (Homo sapiens, UniProt P05177); assay: Inhibition of CYP1A2 in human liver microsomes using phenacetin as substrate incubated for 20 mins by UPLC-MS/MS analysis; assay type: ADME, Microsome
T1 sequence (P05177 whole entry): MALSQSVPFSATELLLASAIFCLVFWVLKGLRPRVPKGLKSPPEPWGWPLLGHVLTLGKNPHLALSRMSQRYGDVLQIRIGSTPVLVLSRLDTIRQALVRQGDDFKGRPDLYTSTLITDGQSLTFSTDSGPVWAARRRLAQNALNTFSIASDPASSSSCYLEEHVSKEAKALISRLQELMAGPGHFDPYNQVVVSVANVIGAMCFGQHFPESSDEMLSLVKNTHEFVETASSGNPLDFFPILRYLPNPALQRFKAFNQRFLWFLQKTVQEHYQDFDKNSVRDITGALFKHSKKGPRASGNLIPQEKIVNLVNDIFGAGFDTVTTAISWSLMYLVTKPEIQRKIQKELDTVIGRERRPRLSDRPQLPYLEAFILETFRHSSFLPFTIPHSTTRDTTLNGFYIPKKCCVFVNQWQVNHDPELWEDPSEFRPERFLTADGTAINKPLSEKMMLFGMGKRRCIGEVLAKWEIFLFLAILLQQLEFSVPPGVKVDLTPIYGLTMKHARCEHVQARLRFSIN

Cytochrome P450 2C9 = Cytochrome P450 2C9 (Homo sapiens, UniProt P11712); assay: Inhibition of CYP2C9 in human liver microsomes using tolbutamide as substrate incubated for 20 mins by UPLC-MS/MS analysis; assay type: ADME, Microsome
Chain of Cytochrome P450 2C9 (P11712 whole entry): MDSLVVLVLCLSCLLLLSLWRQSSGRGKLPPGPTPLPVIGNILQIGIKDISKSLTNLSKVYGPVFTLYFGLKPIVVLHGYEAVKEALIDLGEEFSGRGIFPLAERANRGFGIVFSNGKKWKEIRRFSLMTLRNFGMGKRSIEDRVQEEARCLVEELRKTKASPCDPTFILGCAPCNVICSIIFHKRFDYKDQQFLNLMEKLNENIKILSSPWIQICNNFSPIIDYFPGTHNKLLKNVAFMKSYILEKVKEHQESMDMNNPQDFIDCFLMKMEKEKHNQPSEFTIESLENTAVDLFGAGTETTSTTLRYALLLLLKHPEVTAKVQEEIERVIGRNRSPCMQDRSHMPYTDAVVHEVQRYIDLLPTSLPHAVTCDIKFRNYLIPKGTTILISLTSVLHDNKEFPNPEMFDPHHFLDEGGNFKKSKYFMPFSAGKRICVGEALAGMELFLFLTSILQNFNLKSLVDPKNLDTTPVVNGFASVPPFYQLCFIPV

Cytochrome P450 2C19 = Cytochrome P450 2C19 (Homo sapiens, UniProt P33261); assay: Inhibition of CYP2C19 in human liver microsomes using S mephenytoin as substrate incubated for 20 mins by UPLC-MS/MS analysis; assay type: ADME, Microsome
Chain of Cytochrome P450 2C19 (P33261 whole entry): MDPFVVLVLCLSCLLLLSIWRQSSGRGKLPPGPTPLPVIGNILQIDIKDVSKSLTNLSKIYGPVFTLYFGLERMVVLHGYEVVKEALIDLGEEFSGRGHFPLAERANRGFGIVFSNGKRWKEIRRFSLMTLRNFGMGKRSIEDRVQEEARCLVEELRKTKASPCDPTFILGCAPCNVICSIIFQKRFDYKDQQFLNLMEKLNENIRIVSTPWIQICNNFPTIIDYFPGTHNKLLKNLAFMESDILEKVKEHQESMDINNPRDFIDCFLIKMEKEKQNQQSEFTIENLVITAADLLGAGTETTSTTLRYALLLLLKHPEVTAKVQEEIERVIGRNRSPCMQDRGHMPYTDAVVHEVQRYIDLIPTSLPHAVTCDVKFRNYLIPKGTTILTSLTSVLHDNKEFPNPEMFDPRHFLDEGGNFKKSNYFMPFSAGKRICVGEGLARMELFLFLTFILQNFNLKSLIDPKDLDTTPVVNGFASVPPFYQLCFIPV

Cytochrome P450 2D6 = Cytochrome P450 2D6 (Homo sapiens, UniProt P10635); assay: Inhibition of CYP2D6 in human liver microsomes using bufuralol as substrate incubated for 20 mins by UPLC-MS/MS analysis; assay type: ADME, Microsome
Chain of Cytochrome P450 2D6 (P10635 whole entry): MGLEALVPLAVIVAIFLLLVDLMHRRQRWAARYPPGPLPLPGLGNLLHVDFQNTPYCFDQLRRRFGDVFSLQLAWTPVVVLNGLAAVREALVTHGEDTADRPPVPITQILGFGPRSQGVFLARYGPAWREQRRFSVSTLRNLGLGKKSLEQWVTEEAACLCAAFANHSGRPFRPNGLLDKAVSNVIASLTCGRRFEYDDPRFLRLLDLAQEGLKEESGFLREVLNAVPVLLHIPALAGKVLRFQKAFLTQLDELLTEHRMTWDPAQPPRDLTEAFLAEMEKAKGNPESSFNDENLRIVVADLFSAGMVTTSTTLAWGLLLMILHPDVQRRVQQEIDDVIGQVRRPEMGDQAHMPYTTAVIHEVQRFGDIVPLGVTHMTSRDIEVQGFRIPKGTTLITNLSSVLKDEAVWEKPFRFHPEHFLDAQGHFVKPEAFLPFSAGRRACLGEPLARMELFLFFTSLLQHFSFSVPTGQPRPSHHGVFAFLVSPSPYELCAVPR

Cytochrome P450 3A4 = Cytochrome P450 3A4 (Homo sapiens, UniProt P08684); assay: Inhibition of CYP3A4 in human liver microsomes using testosterone as substrate incubated for 20 mins by UPLC-MS/MS analysis; assay type: ADME, Microsome
Chain of Cytochrome P450 3A4 (P08684 whole entry): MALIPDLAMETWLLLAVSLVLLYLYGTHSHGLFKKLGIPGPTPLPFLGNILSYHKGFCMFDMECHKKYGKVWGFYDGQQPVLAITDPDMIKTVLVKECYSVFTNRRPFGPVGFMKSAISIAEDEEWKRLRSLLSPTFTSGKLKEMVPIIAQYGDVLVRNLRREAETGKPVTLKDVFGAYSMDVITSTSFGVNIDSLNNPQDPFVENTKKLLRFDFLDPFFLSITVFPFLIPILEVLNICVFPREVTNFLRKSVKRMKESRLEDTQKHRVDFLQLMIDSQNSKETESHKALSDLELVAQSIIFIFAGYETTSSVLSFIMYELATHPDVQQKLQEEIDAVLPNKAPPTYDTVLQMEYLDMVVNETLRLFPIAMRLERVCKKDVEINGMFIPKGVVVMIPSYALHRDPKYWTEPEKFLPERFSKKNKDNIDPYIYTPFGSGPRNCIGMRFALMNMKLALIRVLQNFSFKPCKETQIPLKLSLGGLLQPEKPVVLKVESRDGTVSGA

[11] = Metabolic stability in human liver microsome assessed as intrinsic clearance incubated upto 60 mins in presence of NADPH regenerating system by UPLC-MS/MS analysis; assay type: ADME; conditions: liver microsomes, read-out: CLH
[12] = Metabolic stability in rat liver microsome assessed as intrinsic clearance incubated upto 60 mins in presence of NADPH regenerating system by UPLC-MS/MS analysis; assay type: ADME; conditions: liver microsomes, read-out: CLH
[13] = Metabolic stability in mouse liver microsome assessed as intrinsic clearance incubated upto 60 mins in presence of NADPH regenerating system by UPLC-MS/MS analysis; assay type: ADME; conditions: liver microsomes, read-out: CLH
[14] = Apparent permeability across apical to basolateral side in human Caco-2 cells incubated for 2 hrs by UPLC-MS/MS analysis; assay type: ADME, cell-based
[15] = Efflux ratio of apparent permeability across […] in human Caco-2 cells; assay type: ADME, cell-based
[16] = Cmax in Wistar rat at 10 mg/kg, po by UPLC-MS/MS analysis; assay type: ADME, organism-based; design: dose 10 mg/kg, route po; conditions: in vivo
[17] = Cmax in Wistar rat at 1 mg/kg, iv by UPLC-MS/MS analysis; assay type: ADME, organism-based; design: dose 1 mg/kg, route iv; conditions: in vivo
[18] = Tmax in Wistar rat at 10 mg/kg, po by UPLC-MS/MS analysis; assay type: ADME, organism-based; conditions: in vivo
[19] = Tmax in Wistar rat at 1 mg/kg, iv by UPLC-MS/MS analysis; assay type: ADME, organism-based; conditions: in vivo
[20] = AUC in Wistar rat at 10 mg/kg, po by UPLC-MS/MS analysis; assay type: ADME, organism-based; design: dose 10 mg/kg, route po; conditions: in vivo
[21] = AUC in Wistar rat at 1 mg/kg, iv by UPLC-MS/MS analysis; assay type: ADME, organism-based; design: dose 1 mg/kg, route iv; conditions: in vivo
[22] = Half life in Wistar rat at 1 mg/kg, iv by UPLC-MS/MS analysis; assay type: ADME, organism-based; conditions: in vivo
[23] = Clearance in Wistar rat at 1 mg/kg, iv by UPLC-MS/MS analysis; assay type: ADME, organism-based; conditions: in vivo
[24] = Volume of distribution at steady state in Wistar rat at 1 mg/kg, iv by UPLC-MS/MS analysis; assay type: ADME, organism-based; conditions: in vivo, read-out: Vdss
[25] = Oral bioavailability in Wistar rat at 10 mg/kg by UPLC-MS/MS analysis; assay type: ADME, organism-based; conditions: in vivo
[26] = Ratio AUC in Wistar rat brain to plasma at 10 mg/kg, po measured for 10 mins by UPLC-MS/MS analysis; assay type: ADME, organism-based; conditions: brain and plasma, read-out: Ratio AUC
[27] = Drug concentration in Wistar rat plasma at 10 mg/kg, po measured for 10 mins by UPLC-MS/MS analysis; assay type: ADME, organism-based
Neuron = assay: Neuroprotective activity against MPP+ induced rat neurons at 10 uM pretreated with compond for 1 hr followed by MPP+ addition and measured after 48 hrs; assay type: functional, cell-based; conditions: time 49.0 hrs
Rattus norvegicus = assay: Anti-alzheimer activity against amyloid beta peptide-induced cognitive impairment in Wistar rat model at 10 mg/kg, po measured for 10 days; assay type: functional, organism-based; conditions: time 10.0 day

Ki [1]: 1.78 µM
Ki [2]: 0.013 µM
remaining at 1 h, 1 µM [3]: 93%
remaining at 1 h, 1 µM [4]: 95%
remaining at 1 h, 1 µM [5]: 93%
logP [7]: 1.7
logD [8]: 1.4
solubility [9]: 7280 µg/mL (≈ 18.2 mM)
pKa [10]: 7.4
IC50 (Cytochrome P450 1A2): > 900 µM
IC50 (Cytochrome P450 2C9): 600 µM
IC50 (Cytochrome P450 2C19): > 900 µM
IC50 (Cytochrome P450 2D6): 133 µM
IC50 (Cytochrome P450 3A4): > 900 µM
microsomal CLint [11]: 1.6 µL/min/mg
microsomal CLint [12]: 1.5 µL/min/mg
microsomal CLint [13]: 2.8 µL/min/mg
Papp A→B at 2 h [14]: 17.7 ×10⁻⁶ cm/s
Ratio [15]: 1.2
Cmax [16]: 900 ng/mL
Cmax [17]: 2020 ng/mL
Tmax [18]: 48 min
Tmax [19]: 18 min
AUC [20]: 3000 ng·h/mL
AUC [21]: 593 ng·h/mL
half-life [22]: 60 min
clearance [23]: 28.3 mL/min/kg
Vd [24]: 0.8 L/kg
bioavailability [25]: 51%
Kp at 10 min [26]: 0.41
concentration at 10 min [27]: 250 ng/g
SMILES: CCc1ncc(-c2cc(C)no2)c(C2CCN(CC(=O)N3CCOCC3)CC2)n1
Ratio Ki (Homo sapiens): 137
IC50 [6]: > 10 µM
Activity (Neuron): Active
Activity (Rattus norvegicus): Active
